Assay results: paper PMC10582335 (Frontiers in Pharmacology, 2023)
Where “and” joins values, the source holds several entries; their conditions need not be identical. Equal values may be shown once. Read-outs that look alike come from different tables or passages of the source.

Assays:
Abcg2 mRNA (BCRP) = experiment: qRT-PCR of mRNA expression in rat tissues after multiple-dose almonertinib; format: in vivo; settings: intestine, rats given almonertinib for nine consecutive days, n = 3
Description: (§1) Sixty healthy rats were randomly divided into ten groups (n = 6). […] Blood samples were centrifuged at 3,500 g for 10 min, and then the supernatant was gathered and stored in a −80°C refrigerator. After, rat intestine, kidney and liver tissues were harvested for molecular analysis on the ninth or fifth day after treatment with the corresponding drugs for each group. The tissues were placed immediately at −80°C.
(§2) qRT-PCR analysis was used to determine mRNA levels of Abcb1a, Abcg2 and Cyp3a1 in the liver and intestines, and Abcb1a and Abcg2 in the kidney of rats. Total RNA was isolated from frozen liver, intestine and kidney samples using TRNzol Universal according to the manufacturer’s instructions. A Bio Tek Epoch (Bio Tek Instruments, Inc., Winooski, VT, United States) was employed to quantify the purity and concentration of the total RNA based on the ratio of the absorbance between 260 and 280 nm. RNA samples of 1 µg were transformed to complementary DNA (cDNA) using the FastKing RT Kit. The real-time PCR assays were accomplished using a two-step amplification method based on the recommendations in a SLAN-96S Real-Time PCR system (Shanghai Hongshi Medical Technology Co., Ltd. Shanghai, China). […] was used as an internal control, and the PCR cycling criteria were as follows: 95°C for 15 min, then 40 cycles of 95°C for 10, and 60°C for 32 s.

Cyp3a1 mRNA (CYP3A4) = experiment: as above; format: in vivo; settings: rats given almonertinib for nine consecutive days, n = 3
Description: as §1, §2

[1] = cited from earlier work
[2] = Stability in rat plasma under storage and processing conditions (QC samples, UPLC-MS/MS); settings: n = 6
Description: The stability of plasma samples was validated by the QC samples at three concentration levels in six replicates under various storage and processing conditions: autosampler for 24 h after preprocessing, room temperature for 8 h, −80°C for 30 days, and three freeze-thaw cycles (−80°C to room temperature). The samples were verified to be stable if the deviation of the samples was not more than ±15% of the standard concentration.

[3] = Pharmacokinetics of apixaban in rats, alone and after multiple doses of almonertinib; format: in vivo, Sprague-Dawley (SD) rats; settings: for increase of AUC of apixaban: multiple doses of almonertinib; for MRT inf / MRT last / AUC(0-inf) / AUC(0-t) / Cmax / Tmax / CL/F / Vd/F / half-life: male, Sprague-Dawley, rat, po; for MRT inf: read-out: MRT0-∞; for MRT last: read-out: MRT0-t; for CL/F: read-out: CLz/F (converted); for Vd/F: read-out: Vz/F; for half-life: read-out: t1/2z (converted)
Description: Chromatographic separation was performed using an XSelect HSS T3 column (2.1 mm × 100 mm, 2.5 µm, Waters, Milford, MA, United States) at 40°C by gradient elution. The mobile phase consisted of water (A) and acetonitrile (0.1% formic acid, B). […] The flow rate was 0.35 mL min^−1, and the injection volume was 6 µL. The positive ion mode with multiple reaction detection was used. […] The mass spectrometer conditions, including delustering potential (DP) and collision energy (CE) of the compounds, are shown in Table 1. […] Protein precipitation was used to process the plasma samples. 5 μL of mixed IS working solution, 50 µL of the plasma samples, and 150 µL of acetonitrile were vortex-mixed for 1.0 min. […] The supernatant was transferred to a 96-well plate for sample analysis. […] (Beijing, China). […] The study was approved and supervised by the Animal Ethics Committee of Hebei General Hospital (Shijiazhuang, China) (No. 2023024). Adaptive feeding (sufficient food and water) was performed for 1 week before the experiment. […] All rats were fasted for 12 h before starting the experiments while still given water. Sixty healthy rats were randomly divided into ten groups (n = 6). […] Blood samples were centrifuged at 3,500 g for 10 min, and then the supernatant was gathered and stored in a −80°C refrigerator. After, rat intestine, kidney and liver tissues were harvested for molecular analysis on the ninth or fifth day after treatment with the corresponding drugs for each group. The tissues were placed immediately at −80°C. DAS 2.1.1 Software (Mathematical Pharmacology Professional Committee of China, Shanghai, China) was applied to calculate pharmacokinetic parameters using non-compartmental analysis. SPSS 25.0 statistical software (SPSS Inc., Chicago, IL, United States) was applied to statistically analyze the main pharmacokinetic parameters, including AUC, Cmax, Tmax, t1/2, CLz/F, Vz/F, and MRT.

[4] = Freeze-thaw stability for three times, high QC (nominal 150 almonertinib, 800 apixaban, 1,500 rivaroxaban ng/mL)
[5] = Freeze-thaw stability for three times, low QC (nominal 1 almonertinib, 2 apixaban, 10 rivaroxaban ng/mL)
[6] = Freeze-thaw stability for three times, medium QC (nominal 80 almonertinib, 400 apixaban, 800 rivaroxaban ng/mL)
[7] = Room temperature for 8 h, high QC (nominal 150 almonertinib, 800 apixaban, 1,500 rivaroxaban ng/mL)
[8] = Room temperature for 8 h, low QC (nominal 1 almonertinib, 2 apixaban, 10 rivaroxaban ng/mL)
[9] = Room temperature for 8 h, medium QC (nominal 80 almonertinib, 400 apixaban, 800 rivaroxaban ng/mL)
[10] = −80°C for 30 days, high QC (nominal 150 almonertinib, 800 apixaban, 1,500 rivaroxaban ng/mL)
[11] = −80°C for 30 days, low QC (nominal 1 almonertinib, 2 apixaban, 10 rivaroxaban ng/mL)
[12] = −80°C for 30 days, medium QC (nominal 80 almonertinib, 400 apixaban, 800 rivaroxaban ng/mL)
[13] = apixaban 0.25 mg/kg with multiple doses of almonertinib (group 8) compared with group 2, rats
[14] = apixaban 0.5 mg/kg with multiple doses of almonertinib (group 7) compared with group 2, rats
[15] = plasma, 0.25 mg/kg, rats, oral apixaban 0.25 mg/kg after almonertinib 15 mg/kg for nine days (group 8), mean ± SD, n = 6
[16] = plasma, 0.5 mg/kg, rats, oral apixaban 0.5 mg/kg after almonertinib 15 mg/kg for nine days (group 7), mean ± SD, n = 6
[17] = plasma, 0.5 mg/kg, rats, oral apixaban 0.5 mg/kg alone (group 2), mean ± SD, n = 6

C=CC(=O)Nc1cc(Nc2nccc(-c3cn(C4CC4)c4ccccc34)n2)c(OC)cc1N(C)CCN(C)C [almonertinib, Almonertinib]
inhibition of mRNA expression of Abcg2 (Abcg2 mRNA (BCRP)): 28.0%
inhibition of mRNA expression of Cyp3a1 (Cyp3a1 mRNA (CYP3A4); intestine): 96.9%
inhibition of mRNA expression of Cyp3a1 (Cyp3a1 mRNA (CYP3A4); liver): 45.5%
half-life ([1]; almonertinib, ref Yang et al., 2020): 30 to 35 h
Stability: Accuracy (RE%) [2, 4]: −2.56%
Stability: measured concentration, Mean ± SD [2, 4]: 146.17 ± 6.68 ng/mL
Stability: Accuracy (RE%) [2, 5]: 1.47%
Stability: measured concentration, Mean ± SD [2, 5]: 1.01 ± 0.09 ng/mL
Stability: Accuracy (RE%) [2, 6]: 2.13%
Stability: measured concentration, Mean ± SD [2, 6]: 81.7 ± 2.27 ng/mL
Stability: Accuracy (RE%) [2, 7]: −1.67%
Stability: measured concentration, Mean ± SD [2, 7]: 147.50 ± 9.83 ng/mL
Stability: Accuracy (RE%) [2, 8]: 0.97%
Stability: measured concentration, Mean ± SD [2, 8]: 1.01 ± 0.08 ng/mL
Stability: Accuracy (RE%) [2, 9]: 0.60%
Stability: measured concentration, Mean ± SD [2, 9]: 80.48 ± 6.42 ng/mL
Stability: Accuracy (RE%) [2, 10]: −2.22%
Stability: measured concentration, Mean ± SD [2, 10]: 146.67 ± 10.63 ng/mL
Stability: Accuracy (RE%) [2, 11]: 2.33%
Stability: measured concentration, Mean ± SD [2, 11]: 1.02 ± 0.10 ng/mL
Stability: Accuracy (RE%) [2, 12]: 0.65%
Stability: measured concentration, Mean ± SD [2, 12]: 80.52 ± 3.47 ng/mL

COc1ccc(-n2nc(C(N)=O)c3c2C(=O)N(c2ccc(N4CCCCC4=O)cc2)CC3)cc1 [apixaban, Apixaban]
increase of Cmax of apixaban ([3]; apixaban 0.25 mg/kg with multiple doses of almonertinib (group 8) compared with apixaban 0.5 mg/kg alone (group 2), rats): 2.19 fold and 2.2 fold
decrease of CLz/F of apixaban [3, 13]: 5.29 fold
increase of AUC0-t of apixaban [3, 13]: 2.06 fold
increase of AUC0-∞ of apixaban [3, 13]: 2.02 fold
increase of Cmax of apixaban ([3]; apixaban 0.5 mg/kg with multiple doses of almonertinib (group 7) compared with apixaban 0.5 mg/kg alone (group 2), rats): 2.69 fold and ~3.0 fold
decrease of CLz/F of apixaban [3, 14]: 3.00 fold
increase of AUC0-t of apixaban [3, 14]: 2.87 fold
increase of AUC0-∞ of apixaban [3, 14]: 2.82 fold
increase of AUC of apixaban ([3]; dose of apixaban reduced by half, rats (discussion)): 2.1 fold
MRT inf ([3]; in vivo, 0.25 mg/kg): 2.06 ± 0.36 h
MRT last ([3]; in vivo, 0.5 mg/kg): 2.19 ± 0.13 h
AUC(0-inf) [3, 15]: 1870 ± 528 ng·h/mL
AUC(0-t) [3, 15]: 1870 ± 529 ng·h/mL
Cmax [3, 15]: 645 ± 191 ng/mL
Tmax [3, 15]: 0.79 ± 0.25 h
CL/F [3, 15]: 2.33 mL/min/kg
Vd/F [3, 15]: 0.44 ± 0.11 L/kg
half-life [3, 15]: 2.17 ± 0.15 h
MRT last ([3]; plasma, 0.25 mg/kg): 2.01 ± 0.32 h
AUC(0-inf) [3, 16]: 2370 ng·h/mL
AUC(0-t) [3, 16]: 2360 ng·h/mL
Cmax [3, 16]: 747 ± 159 ng/mL
Tmax [3, 16]: 0.63 ± 0.14 h
CL/F [3, 16]: 3.67 mL/min/kg
MRT inf [3, 16]: 2.11 ± 0.13 h
Vd/F [3, 16]: 0.58 ± 0.2 L/kg
half-life [3, 16]: 1.81 ± 0.23 h
AUC(0-inf) [3, 17]: 621 ± 168 ng·h/mL
AUC(0-t) [3, 17]: 611 ± 168 ng·h/mL
Cmax [3, 17]: 202 ± 50.9 ng/mL
Tmax [3, 17]: 0.68 ± 0.28 h
CL/F [3, 17]: 14.7 mL/min/kg
MRT inf [3, 17]: 2.42 ± 0.16 h
Vd/F [3, 17]: 3.72 ± 1.63 L/kg
half-life [3, 17]: 2.95 ± 0.96 h
MRT last ([3]; plasma, 0.5 mg/kg): 2.08 ± 0.13 h
increase of AUC of apixaban ([3]; rats (discussion, AUC not specified further)): ~3.0 fold
time of the maximal blood concentration after oral intake ([1]; (±1 h), each of two drugs, ref Steffel et al., 2021): 2 to 3 h
time to reach maximum plasma concentrations ([1]; after oral administration, ref Kubitza et al., 2005a, Kubitza et al., 2005b, Raghavan et al., 2009): 2 to 4 h
renal excretion as share of the total clearance ([1]; apixaban, ref Byon et al., 2019): approximately 27%
Stability: Accuracy (RE%) [2, 4]: 0.04%
Stability: measured concentration, Mean ± SD [2, 4]: 800.33 ± 24.72 ng/mL
Stability: Accuracy (RE%) [2, 5]: −3.42%
Stability: measured concentration, Mean ± SD [2, 5]: 1.93 ± 0.13 ng/mL
Stability: Accuracy (RE%) [2, 6]: 2.67%
Stability: measured concentration, Mean ± SD [2, 6]: 410.67 ± 12.03 ng/mL
Stability: Accuracy (RE%) [2, 7]: 0.60%
Stability: measured concentration, Mean ± SD [2, 7]: 804.83 ± 20.23 ng/mL
Stability: Accuracy (RE%) [2, 8]: 3.83%
Stability: measured concentration, Mean ± SD [2, 8]: 2.08 ± 0.07 ng/mL
Stability: Accuracy (RE%) [2, 9]: 6.08%
Stability: measured concentration, Mean ± SD [2, 9]: 424.33 ± 9.35 ng/mL
Stability: Accuracy (RE%) [2, 10]: −2.15%
Stability: measured concentration, Mean ± SD [2, 10]: 782.83 ± 22.19 ng/mL
Stability: Accuracy (RE%) [2, 11]: 0.83%
Stability: measured concentration, Mean ± SD [2, 11]: 2.02 ± 0.08 ng/mL
Stability: Accuracy (RE%) [2, 12]: 0.13%
Stability: measured concentration, Mean ± SD [2, 12]: 400.50 ± 19.99 ng/mL
